Experiments:
human subjects [1] = experiment: EEG beta functional connectivity, corrected Amplitude Envelope Correlation (AECc); format: in vivo
Protocol: “40 mg” refers to combined neflamapimod patients, including 40 mg BID and 40 mg TID.
These regions, in particular the frontal cortex, receive cholinergic input, including projections from the nucleus basalis of Meynert. Dysfunction of the cholinergic system leads to impaired cortical functional connectivity, which is disruptive to the performance of complex motor functions such as gait. The ability of neflamapimod to improve functional connectivity, as measured by EEG in the experiments described herein, provides further support for the efficacy of neflamapimod to alleviate gait dysfunction.
Functional connectivity analysis, specifically corrected Amplitude Envelope Correlation (AECc), measures interregional communication or so-called ‘functional connectivity’ between different brain regions. In the functional connectivity analysis, a positive neflamapimod treatment effect on AECc in the beta band (13-30 Hz) was identified. Mean AECc beta was increased with neflamapimod TID versus all placebo (p=0.033) and versus placebo TID (p=0.01).

hippocampal neurons = details: hippocampal cell culture; cited from earlier work
human subjects [2] = experiment: Timed Up and Go (TUG) test, 16-week placebo-controlled clinical study; format: in vivo; details: 8 and 16 weeks
Protocol: FIG. 1A illustrates the Timed Up and Go (TUG) test, wherein the time it takes a subject to stand up from a chair, walk three meters, turn around and return to the chair is measured.
(§1) A double-blind placebo-controlled, 16-week, treatment with neflamapimod was conducted in parallel groups at 22 centers in the US and 2 centers in the Netherlands.
(§2) Inclusion criteria included Mild-to-moderate (MMSE 15-28) probable Dementia with Lewy Bodies by consensus criteria (McKeith et al, Neurology, 2017; 89:88-100), a positive reading of DaTscan™, and have to have been currently receiving cholinesterase inhibitor therapy (>3 months and stable dose >6 weeks). If DaTscan™ was negative, subjects could also be enrolled with history of polysomnography-confirmed REM sleep disorder (6 study participants so enrolled). The study was randomized 1:1 to 40 mg neflamapimod or matching-placebo capsules. Dosing regimen was based on weight: subjects weighing <80 kg received capsules twice-daily (BID) and those weighing ≥80 kg received capsules three-times-a-day (TID).
Secondary clinical endpoints included the following. (a) International Shopping List Test (ISLT); (b) Timed Up and Go Test (TUG), Ten item Neuropsychiatric Inventory (NPI-10); and (c) Clinical Dementia Rating scale Sum-of-Boxes (CDR-SB). […]

human subjects [3] = experiment: Personal Care Domain of Clinical Dementia Rating Scale Sum of Boxes (CDR-SB); format: in vivo; details: neflamapimod vs placebo over 16 weeks; p=0.02 (MMRM), FIG. 4
Protocol: as §1, §2
Secondary clinical endpoints included the following. (a) International Shopping List Test (ISLT); (b) Timed Up and Go Test (TUG), Ten item Neuropsychiatric Inventory (NPI-10); and (c) Clinical Dementia Rating scale Sum-of-Boxes (CDR-SB). The TUG test is useful to measure risk of fall in patients with or at risk of suffering from Parkinson's disease (see e.g., Arch Phys Med Rehabil. 2013 July; 94(7): 1300-1305).

CKIδ = CKIδ (Homo sapiens, UniProt P48730); details: cited from earlier work
CKIε = CKIε (Homo sapiens, UniProt P49674); details: cited from earlier work
Chain of CKIε (P49674 whole entry, species assumed): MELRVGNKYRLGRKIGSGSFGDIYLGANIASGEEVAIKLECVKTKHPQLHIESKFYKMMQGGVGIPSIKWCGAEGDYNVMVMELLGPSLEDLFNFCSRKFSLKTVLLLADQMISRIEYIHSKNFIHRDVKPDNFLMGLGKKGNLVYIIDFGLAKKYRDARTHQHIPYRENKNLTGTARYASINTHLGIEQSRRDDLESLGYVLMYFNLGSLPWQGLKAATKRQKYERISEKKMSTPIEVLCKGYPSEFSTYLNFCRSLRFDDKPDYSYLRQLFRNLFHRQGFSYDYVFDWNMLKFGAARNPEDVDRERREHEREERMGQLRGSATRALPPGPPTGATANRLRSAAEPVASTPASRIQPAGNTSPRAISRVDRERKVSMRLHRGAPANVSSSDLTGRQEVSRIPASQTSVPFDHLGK

Chain of CKIδ (P48730 whole entry, species assumed): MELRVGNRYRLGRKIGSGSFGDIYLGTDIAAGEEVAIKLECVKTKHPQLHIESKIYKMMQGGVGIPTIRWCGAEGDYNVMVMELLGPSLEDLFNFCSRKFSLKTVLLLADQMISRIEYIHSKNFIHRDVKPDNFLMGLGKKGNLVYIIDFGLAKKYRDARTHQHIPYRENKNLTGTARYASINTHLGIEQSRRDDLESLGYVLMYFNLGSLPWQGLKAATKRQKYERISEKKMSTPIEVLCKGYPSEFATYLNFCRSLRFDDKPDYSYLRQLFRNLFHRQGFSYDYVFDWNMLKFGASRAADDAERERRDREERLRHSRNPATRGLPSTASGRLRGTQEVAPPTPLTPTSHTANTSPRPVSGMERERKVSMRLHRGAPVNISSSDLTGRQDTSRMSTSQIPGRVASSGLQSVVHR

SMILES | AECc in each of the other bands (human subjects [1]; EEG bands other than beta) | Mean AECc beta (13-30 Hz) functional connectivity (human subjects [1]; neflamapimod TID versus all placebo (p=0.033) and versus placebo TID (p=0.01)) | AECc beta by brain region (human subjects [1]; placebo TID versus neflamapimod TID, frontal p=0.009, temporal p=0.036, parietal p=0.036) | Effect against amyloid β-derived diffusible ligand (ADDL) induced synaptotoxicity (hippocampal neurons) | TUG test outcome (human subjects [2]; all neflamapimod (40 mg BID and 40 mg TID) vs all placebo, p=0.044 (MMRM), FIG. 2) | TUG test outcome (human subjects [2]; neflamapimod 40 mg TID vs placebo TID, p=0.024 (MMRM), FIG. 3) | Personal care domain of the CDR sum of boxes (human subjects [3]) | Inhibition of casein kinase isoform CKIδ (CKIδ) | Inhibition of casein kinase isoform CKIε (CKIε)
O=c1ncn2nc(Sc3ccc(F)cc3F)ccc2c1-c1c(Cl)cccc1Cl [neflamapimod, 5-(2,6-dichlorophenyl)-2-(2,4-difluorophenylthio)-6H-pyrimido[1,6-b]pyridazin-6-one] | stable or slightly improved with no treatment group differences | increased | most prominent in the frontal region | positive effects | significantly improve outcome | significantly improve outcome | significant positive outcome |  | 
COc1nccc(-c2c(-c3ccc(F)cc3)ncn2C2CCC(O)CC2)n1 (stereo not shown) [SB239063] |  |  |  | ineffective |  |  |  | inhibit | inhibit

From patent US20230405005A1, “TREATMENT OF GAIT DYSFUNCTION IN NEURODEGENERATIVE DISEASE” (EIP Pharma, Inc., priority 2020, published 2023)
